Laboratory results published in the supplement of paper PMC11451515.

How the values were obtained:
Assay in all cases: AUC of viability dose-response curve (% viability x log10 dose units); higher = less sensitive
Conditions in all cases: 48 h
[1] = tested on: SEM cells
Method in brief: (§1)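 Over 48 h at 37°C, leukemia cells in 1536-well plates (500 or 1000 cells/well), adapted to each medium, received library compounds in DMSO at 11 threefold doses from 47 μM to 0.79 nM. CellTiter-Glo One luminescence, normalised per plate to DMSO and cell-free wells, was fitted by a four-parameter log-logistic function of log10 dose. The area under the curve was then integrated by trapezoidal rule, after scaling curves above full viability and removing those that failed quality control.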

[2] = tested on: P12-Ichikawa
Method in brief: as §1

[3] = tested on: NOMO1
Method in brief: as §1

[4] = RPMI 5 mM glucose + 10% dialyzed FBS

| Compound | AUC of viability dose-response curve ([1]; HPLM + 10% dialyzed FBS) | AUC of viability dose-response curve ([1]; RPMI 5 mM glucose + 10% FBS) | AUC of viability dose-response curve [1, 4] | AUC of viability dose-response curve ([2]; HPLM + 10% dialyzed FBS) | AUC of viability dose-response curve ([2]; RPMI 5 mM glucose + 10% FBS) | AUC of viability dose-response curve [2, 4] | AUC of viability dose-response curve ([3]; HPLM + 10% dialyzed FBS) | AUC of viability dose-response curve ([3]; RPMI 5 mM glucose + 10% FBS) | AUC of viability dose-response curve [3, 4] |
| --- | --- | --- | --- | --- | --- | --- | --- | --- | --- |
| Cl.Cl.Fc1ccc(C(OCCN2CCN(CCCc3ccccc3)CC2)c2ccc(F)cc2)cc1 | 460 | 458 | 458 | 470 | 467 | 465 | 438 | 457 | 446 |
| COc1cc(/C=C/C(=O)CC(=O)/C=C/c2ccc(O)c(OC)c2)ccc1O | 406 | 409 | 417 | 416 | 431 | 433 | 419 | 440 | 441 |
| N/C(=N\C(=O)c1nc(Cl)c(N)nc1N)NCc1ccccc1 | 449 | 407 | 436 | 465 | 449 | 436 | 448 | 405 | 447 |
| CC(C)(C)C1=NC2=C([NH]1)C3=CC=C(F)C=C3C4=C2\C=C/NC4=O | 384 | 378 | 384 | 391 | 404 | 408 | 415 | 412 | 408 |
| Cn1cc(-c2ccc3ncc(Cc4ccc5ncccc5c4)n3n2)cn1 | 450 | 452 | 450 | 472 | 474 | 470 | 468 | 477 | 472 |
| Nc1cccc(-c2cc3c(Oc4cccc(O)c4)ncnc3[nH]2)c1 | 414 | 415 | 414 | 423 | 431 | 436 | 445 | 463 | 460 |
| O=C1c2cccc(O)c2C(=O)c2c(O)cc(CO)cc21 | 474 | 451 | 422 | 452 | 450 | 431 | 417 | 424 | 451 |
| NC12CC3CC(CC(C3)C1)C2 | 435 | 401 | 371 | 466 | 466 | 476 | 448 | 470 | 461 |
| CN(C)[C@H]\1[C@@H]2[C@@H](O)[C@@H]\3C(=C)C4=C(C(=CC=C4)O)C(=O)C3=C(\O)[C@@]2(O)C(=O)\C(=C1O)C(N)=O | 452 | 463 | 466 | 465 | 468 | 472 | 449 | 462 | 474 |
| CC1OC(OC/2=C(/OC3=C(C(=CC(=C3)O)O)C2=O)C4=CC=C(O)C=C4)C(O)C(OC(C)=O)C1OC(C)=O (configuration not stated) | 463 | 367 | 465 | 454 | 455 | 460 | 440 | 430 | 466 |
| CN(C)C(=O)COC(=O)Cc1ccc(OC(=O)c2ccc(NC(=N)N)cc2)cc1 | 465 | 458 | 469 | 446 | 462 | 437 | 426 | 469 | 465 |
| Cc1ccc(F)c(NC(=O)Nc2ccc(-c3cccc4[nH]nc(N)c34)cc2)c1 | 314 | 256 | 296 | 470 | 472 | 470 | 464 | 472 | 471 |
| COC1=CC=C2C(=CC=NC2=C1)OC3=CC=C(NC(=O)\C4=C(C)\N(CC(C)(C)O)N(C4=O)C5=CC=CC=C5)C=C3F | 404 | 379 | 365 | 472 | 468 | 469 | 459 | 468 | 467 |
| C[C@H]1[C@@H](CC(C[C@H]2O[C@@H]3O[C@]4(C)CC[C@H]5[C@H](C)CC[C@@H]([C@H]2C)[C@@]35OO4)C[S+](=O)([O-])c2ccc(COC(=O)N(C)C)cc2)O[C@@H]2O[C@]3(C)CC[C@H]4[C@H](C)CC[C@@H]1[C@@]24OO3 | 297 | 284 | 284 | 351 | 348 | 341 | 301 | 329 | 299 |
| c1ccc2c(Oc3nc(Nc4ccc(N5CCOCC5)cc4)c4ncn(C5CCCCC5)c4n3)cccc2c1 | 462 | 452 | 458 | 451 | 462 | 466 | 439 | 440 | 466 |
| N#Cc1c(C2CCNCC2)cc(-c2c(O)cccc2OCC2CC2)nc1N | 441 | 446 | 435 | 453 | 430 | 446 | 455 | 450 | 447 |
| c1cc(-c2sc(-c3ccncc3)c(-c3ccncc3)c2-c2ccncc2)ccn1 | 377 | 350 | 365 | 472 | 466 | 471 | 472 | 439 | 464 |
| CCC1=C(C)CN(C(=O)NCCc2ccc(S(=O)(=O)NC(=O)N[C@H]3CC[C@H](C)CC3)cc2)C1=O | 417 | 443 | 445 | 458 | 442 | 458 | 475 | 439 | 457 |
| Cn1cc(-c2ccncc2)c(-c2ccc(OCc3ccc4ccccc4n3)cc2)n1 | 469 | 445 | 465 | 449 | 433 | 440 | 454 | 451 | 463 |
| CC(=O)SCC(Cc1ccccc1)C(=O)NCC(=O)OCc1ccccc1 (configuration not stated) | 451 | 443 | 442 | 439 | 445 | 418 | 390 | 358 | 351 |
| CC(C)(Cc1ccc2ccccc2c1)NC[C@@H](O)COc1cccc(Cl)c1C#N | 448 | 466 | 438 | 453 | 449 | 451 | 458 | 455 | 451 |
| Cc1c(OCC(F)(F)F)ccnc1C[S+]([O-])c1nc2ccccc2[nH]1 (configuration not stated) | 420 | 475 | 453 | 466 | 459 | 471 | 456 | 469 | 448 |
| CC(Oc1ccc(O)cc1)(P(=O)(O)O)P(=O)(O)O | 427 | 420 | 421 | 434 | 401 | 418 | 415 | 399 | 405 |
| CCOC(=O)c1ccc(C#Cc2ccc3c(c2)C(C)(C)CCS3)nc1 | 472 | 477 | 446 | 470 | 469 | 475 | 436 | 467 | 450 |
| CCOc1ccccc1OCCNC(C)Cc1ccc(OC)c([S+](N)(=O)[O-])c1 (configuration not stated) | 459 | 462 | 464 | 471 | 462 | 471 | 468 | 461 | 466 |
| Cn1c(=O)c2c(ncn2CC(O)CO)n(C)c1=O (configuration not stated) | 440 | 469 | 421 | 435 | 449 | 460 | 470 | 462 | 455 |
| NC\1=N\C(=O)N(\C=N1)[C@H]2C[C@H](O)[C@@H](CO)O2 | 362 | 327 | 309 | 382 | 368 | 378 | 375 | 402 | 417 |
| C[C@@H]1CN(CC(=O)N2CC(C)(C)c3ncc(Cc4ccc(F)cc4)cc32)[C@@H](CN2CCOC[C@H]2C)CN1 | 448 | 402 | 465 | 463 | 449 | 477 | 442 | 456 | 459 |
